Legend:
[1] = test system: patient of renal angiomyolipoma in consequence of tuberous sclerosis; assay: Amount of sweating measured with local perspiration meter during and after oral mTOR inhibitor; type: in vivo, human; conditions: FIG. 4
Description: To a patient of renal angiomyolipoma in consequence of tuberous sclerosis, the mTOR inhibitor (everolimus (Afinitor (Registered Trademark))) was orally administered by 10 mg per day for approximately four months, and then the oral administration of the mTOR inhibitor was withdrawn.
During the period, after the oral administration of the mTOR inhibitor was started, an amount of sweating on a normal skin of the patient was measured with time and an amount of sweating on a skin of the patient on which a symptom of vitiligo appeared was measured with time.
The amount of sweating was measured with use of a local perspiration meter (quantitative axon reflex sweat amount measuring device) manufactured by Skinos Giken, and a specific measuring method was in conformity to a protocol attached to the device.

human = assay: Observation of skin symptom after oral administration of mTOR inhibitor; type: in vivo; conditions: orally 10 mg per day, FIG. 3
Description: An influence on a skin exerted by a mTOR inhibitor was observed.
Specifically, a mTOR inhibitor (everolimus (Afinitor (Registered Trademark)) was orally administered to a human by 10 mg per day, and a symptom appeared on the skin was observed.
Specifically, (a) of FIG. 3 is a photograph showing a state of the skin before the mTOR inhibitor is administered, and (b) of FIG. 3 is a photograph showing a state of the skin after the mTOR inhibitor is administered.

[2] = orally 10 mg per day for approximately four months

CO[C@H]1C[C@@H]2CC[C@@H](C)[C@@](O)(O2)C(=O)C(=O)N2CCCC[C@H]2C(=O)O[C@H]([C@H](C)C[C@@H]2CC[C@@H](OCCO)[C@H](OC)C2)CC(=O)[C@H](C)/C=C(\C)[C@@H](O)[C@@H](OC)C(=O)[C@H](C)C[C@H](C)/C=C/C=C/C=C/1C [everolimus]
amounts of sweating after withdrawal of administration ([1]; normal skin and vitiligo skin, after withdrawal of oral administration): restored
amount of sweating on the normal skin [1, 2]: reduced
amount of sweating on the skin showing the symptom of vitiligo [1, 2]: reduced
symptom appeared on the skin (human): dry skin

Reference: patent US20170151219A1, “ANTIPERSPIRANT AGENT” (OSAKA UNIVERSITY, priority 2014, published 2017)
